One test deals with T1, GABAB receptor (Mus musculus, UniProt Q80T41+Q9WV18).
T1 construct: a mouse brain cortex membrane (4 μg); tissue Japan SLC, Inc. (ddY mice); host or cells: mouse brain cortex membrane
Briefly: [35S]GTPγS binding test for PAM action, mouse brain cortical membrane. Format: biochemical. As to conditions: 100 μM GABA = 100%; for EC50: concentration raising reaction rate from 20% with 0.3 μM GABA to 50%, mouse brain cortex membrane, read-out: Potency (PAM Potency of GABAB). The method, then:
The function of the GABAB receptor of the compound of the present invention was evaluated using a [^35S] GTPγS binding test. This method is used for the detection of the PAM action of the compound on the GABAB receptor (Journal of Pharmacology and Experimental Therapeutics, 2003, vol. 307(1), p. 322-330; and Molecular Pharmacology, 2001, vol. 60(5), p. 963-971).
The mouse brain cortical membrane was prepared with reference to a method for preparing a rat brain membrane (European Journal of Pharmacology, 1990, vol. 187 (1), p. 27-38).
The cortex (about 30 g) was cut out of the brains of 90 ddY mice (Japan SLC, Inc.). An A buffer was added to the cortex (cortex/A buffer=about 1:3 (wt/vol)), and homogenized with a glass Teflon-lined homogenizer (Teflon: registered trademark) on ice. The homogenate was centrifuged (750 g, 10 min, 4° C.) and a supernatant was then obtained. An A buffer (90 mL) was added to pellets and homogenized on ice, and a supernatant (750 g, 10 min, 4° C.) was then obtained. By repeating this operation, the supernatant was collected.
The supernatant was centrifuged (18000 g, 15 min, 4° C.). Ultrapure water (54 mL) was added to the pellets, left to stand for 30 min on ice, and then centrifuged (39000 g, 20 min, 4° C.). The pellets were suspended in a KH buffer (54 mL), repeatedly frozen and thawed, and centrifuged (18000 g, 15 min) at 4° C. The buffer was added to the pellets and then frozen and thawed, and this operation was repeated until the centrifugation. By a Bradford method using a protein assay (Protein assay CBB solution; Nacalai Tesque, Inc.), a KH buffer suspension of the pellet was prepared at a protein concentration of 10 mg/mL.
The PAM action of the GABAB receptor in the mouse brain cortex of a test drug was evaluated. To each of wells of a 96-well microplate, a test drug diluted with a B buffer at each concentration (3 nM to 30 μM), a mouse brain cortex membrane (4 μg), [^35S] GTPγS (final concentration of 0.34 nM, Muromachi Yakuhin Co., Ltd.; Institute of Isotopes Co., Ltd.), GABA (final concentration of 0.3 μM; Sigma) were added in this order, followed by standing at room temperature for 1 hour. With a harvester (Filtermate, Perkin-Elmer, Inc.), the suspension was suction-filtered through a glass filter (UniFilter 96-well GF/B filter plates, Perkin-Elmer, Inc.). The glass filter was washed with a C buffer that had been ice-cooled. After drying the glass filter, a liquid scintillation cocktail (50 μL, MicroScinti-PS; PerkinElmer, Inc.) was added to each well. The amount of [^35S] GTPγS bound to the membrane was measured on a plate reader (TopCount, PerkinElmer, Inc.).
The maximum reaction rate of 100 μM GABA was taken as 100%. […] At a time when the test drug was not added, the concentration of the test drug that increased the reaction rate from 20% with 0.3 μM GABA to 50% was taken as a PAM Potency (μM) of the GABAB of the test drug. In the presence of 0.3 μM GABA, the maximum reaction rate of the effect on the GABAB receptor when the test drug was administered up to maximum 30 μM was taken as a PAM Efficacy (%) of the GABAB of the test drug.
The Potency and Efficacy of several representative Example Compounds of the present invention are shown in Table below (In the Table, Ex represents Example Compound No. The “Potency” represents the PAM Potency of GABAB of the test drug, and the “Efficacy” represents PAM Efficacy (%) of GABAB of the test drug. These shall apply hereinafter).

Test [1] relates to spontaneous alternation behavior (short-term memory impairment). In words: Y-maze test: improvement effect on MK-801-induced cognitive impairment. As to conditions: oral, once, 30 minutes before test; ddY male mice; MK-801 0.15 mg/kg i.p.; spontaneous alternation rate. Format: in vivo, mouse. The method, then: The effect on the improvement of short-term memory impairment of the compound of the present invention was evaluated using a Y-maze test that is an experimental system of spontaneous alternation behavior.
As the Y maze, a maze, in which three runways having a length of one arm of 40 cm, a height of a wall of 13 cm, a width of a floor of 3 cm, and a width of a top of 10 cm are each joined at 120 degrees in a Y shape, was used. […]
The mouse was placed at one end of a certain place in the runway in the Y maze, and then freely explored for 8 minutes, and the runways into which the mice invaded and the order thereof were recorded. The number of the entries of the mice within a measurement time was counted and defined as a total number of entries. Among these, a combination when the mice invaded into different three runways (for example, in a case where the three arms are referred to as a, b, and c, respectively, and the order of the arms with entries is abccbacab, the number was counted as 4, including the repetition) was defined as the number of spontaneous alternation behaviors. For the spontaneous alternation rate, a spontaneous alternation rate calculated by the following equation was taken as an index of spontaneous alternation behavior: Spontaneous alternation rate=number of spontaneous alternation behaviors/(total number of entries−2)×100. […]

The source of these data is patent US9051339B2, “Sulfur-containing bicyclic compound” (Astellas Pharma Inc., priority 2013, dated 2015).

T1 sequence (Q9WV18 20-960): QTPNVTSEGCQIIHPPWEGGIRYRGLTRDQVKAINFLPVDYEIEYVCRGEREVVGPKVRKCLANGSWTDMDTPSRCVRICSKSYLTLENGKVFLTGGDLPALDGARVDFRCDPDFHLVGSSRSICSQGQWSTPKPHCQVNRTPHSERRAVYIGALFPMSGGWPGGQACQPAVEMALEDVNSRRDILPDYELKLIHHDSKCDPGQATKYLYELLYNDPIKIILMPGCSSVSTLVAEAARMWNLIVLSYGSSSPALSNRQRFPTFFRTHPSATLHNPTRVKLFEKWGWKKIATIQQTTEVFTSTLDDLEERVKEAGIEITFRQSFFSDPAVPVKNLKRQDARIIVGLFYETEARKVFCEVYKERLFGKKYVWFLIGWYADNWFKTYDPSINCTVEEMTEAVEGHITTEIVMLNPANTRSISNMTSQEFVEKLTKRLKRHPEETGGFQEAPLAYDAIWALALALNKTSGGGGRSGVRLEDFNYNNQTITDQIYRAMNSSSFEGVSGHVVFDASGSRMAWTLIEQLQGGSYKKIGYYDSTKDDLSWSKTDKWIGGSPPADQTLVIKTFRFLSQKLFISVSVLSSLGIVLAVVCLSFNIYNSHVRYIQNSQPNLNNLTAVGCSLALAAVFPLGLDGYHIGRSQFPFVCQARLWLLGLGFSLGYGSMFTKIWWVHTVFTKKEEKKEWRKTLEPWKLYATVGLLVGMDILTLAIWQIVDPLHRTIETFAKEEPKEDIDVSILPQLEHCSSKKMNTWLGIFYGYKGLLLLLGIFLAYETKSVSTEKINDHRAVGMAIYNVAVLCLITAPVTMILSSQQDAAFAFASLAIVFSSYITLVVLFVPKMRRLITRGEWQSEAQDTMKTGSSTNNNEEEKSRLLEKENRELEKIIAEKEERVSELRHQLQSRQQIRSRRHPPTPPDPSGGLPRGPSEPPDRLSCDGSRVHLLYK
T1 sequence (Q80T41 41-940): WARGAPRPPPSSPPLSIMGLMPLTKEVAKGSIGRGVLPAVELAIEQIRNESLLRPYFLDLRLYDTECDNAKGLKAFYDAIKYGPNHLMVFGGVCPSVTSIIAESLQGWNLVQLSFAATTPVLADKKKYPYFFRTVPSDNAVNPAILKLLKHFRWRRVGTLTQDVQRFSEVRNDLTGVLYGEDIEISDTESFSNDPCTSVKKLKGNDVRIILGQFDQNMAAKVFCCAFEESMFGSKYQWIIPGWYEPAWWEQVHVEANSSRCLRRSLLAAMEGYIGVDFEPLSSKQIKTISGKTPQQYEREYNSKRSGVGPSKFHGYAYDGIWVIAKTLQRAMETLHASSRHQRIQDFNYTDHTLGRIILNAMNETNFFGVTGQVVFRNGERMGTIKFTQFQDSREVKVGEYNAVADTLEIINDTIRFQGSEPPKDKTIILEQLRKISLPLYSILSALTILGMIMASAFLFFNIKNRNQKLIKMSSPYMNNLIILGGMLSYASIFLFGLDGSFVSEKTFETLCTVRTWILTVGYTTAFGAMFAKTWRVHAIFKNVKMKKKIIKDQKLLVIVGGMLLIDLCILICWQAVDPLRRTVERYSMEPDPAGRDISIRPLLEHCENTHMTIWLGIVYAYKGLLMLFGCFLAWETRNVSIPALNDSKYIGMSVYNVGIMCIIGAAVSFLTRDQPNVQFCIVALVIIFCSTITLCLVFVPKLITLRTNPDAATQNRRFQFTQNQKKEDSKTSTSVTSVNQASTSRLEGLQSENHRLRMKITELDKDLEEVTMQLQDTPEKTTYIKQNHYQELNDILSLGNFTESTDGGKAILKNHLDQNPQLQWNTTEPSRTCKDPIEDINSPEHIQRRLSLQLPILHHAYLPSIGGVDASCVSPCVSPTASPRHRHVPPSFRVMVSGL

On to `Cc1nc(CN2CC[C@@H](O)[C@H](O)C2)c2cc(C3CCC(C)(C)CC3)sc2n1` (single isomer, unassigned) [Ex31, trans-1-{[6-(4,4-dimethylcyclohexyl)-2-methylthieno[2,3-d]pyrimidin-4-yl]methyl}piperidine-3,4-diol], for which the EC50 on GABAB receptor is 110 nM. On GABAB receptor (maximum reaction rate in presence of 0.3 μM GABA, test drug up to 30 μM), the “Efficacy (PAM Efficacy of GABAB)” value is recorded as 300%. The MED in test [1] is reported as 1.0 mg/kg.

`Cc1nc(CN2CCS(=O)(=O)CC2)c2cc(C3CCC(C)(C)CC3)sc2n1` [Ex2, 6-(4,4-dimethylcyclohexyl)-4-[(1,1-dioxidothiomorpholin-4-yl)methyl]-2-methylthieno[2,3-d]pyrimidine]: the EC50 at GABAB receptor came to 110 nM. In addition, at GABAB receptor (maximum reaction rate in presence of 0.3 μM GABA, test drug up to 30 μM, read-out: Efficacy (PAM Efficacy of GABAB)), the Emax came out at 207%. The MED in test [1] is reported as 0.1 mg/kg.
